Results as given in ChEMBL document CHEMBL1201862, “PubChem BioAssay data set” (2004).
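Assay format: 96-well plates, 48-hour exposure. Here, GI50 denotes the concentration required for 50% inhibition of growth.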 Activity calls are given as the source filed them. No stated cut-off is given here; in the data, active = GI50 up to about 1.1 µM and inactive = higher.

Key:
Assay in all cases: NCI anticancer screen, dose series, 48 h
[1] = test system: M14
[2] = test system: NCI-H522
[3] = test system: EKVX
[4] = test system: SNB-75
[5] = test system: MOLT-4
[6] = test system: ACHN
[7] = test system: Hs-578T
[8] = test system: MDA-N
[9] = test system: OVCAR-8
[10] = test system: HCT-15
[11] = test system: RXF 393
[12] = test system: LOX IMVI
[13] = test system: A549
[14] = test system: UACC-257
[15] = test system: HL-60
[16] = test system: MCF7
[17] = test system: SW-620
[18] = test system: SK-MEL-28
[19] = test system: T47D

| Structure (SMILES) | GI50 [1] | GI50 [2] | GI50 [3] | GI50 [4] | GI50 [5] | GI50 [6] | GI50 [7] | GI50 [8] | GI50 [9] | GI50 [10] | GI50 [11] | GI50 [12] | GI50 [13] | GI50 [14] | GI50 [15] | GI50 [16] | GI50 [17] | GI50 [18] | GI50 [19] |
| --- | --- | --- | --- | --- | --- | --- | --- | --- | --- | --- | --- | --- | --- | --- | --- | --- | --- | --- | --- |
| CN(C)c1ccc(C(=O)NCCCCCCC(=O)NO)cc1 | 0.565 µM (active) | 0.11 µM (active) | 1.52 µM (inactive) | 0.251 µM (active) | 0.241 µM (active) | 0.67 µM (active) | 0.9 µM (active) | 0.233 µM (active) | 0.153 µM (active) | 1.27 µM | 0.303 µM (active) | 0.272 µM (active) | 0.514 µM (active) | 0.237 µM (active) | 0.397 µM (active) | 0.237 µM (active) | 0.312 µM (active) | 0.434 µM (active) | 0.216 µM (active) |
| c1ccc(CNCCCNCCCCNCCCNCc2ccccc2)cc1 | 5.46 µM (inactive) | 1.57 µM (inactive) | 9.42 µM (inactive) | 8.91 µM (inactive) | 0.834 µM (active) | 6.05 µM (inactive) | 1.91 µM (inactive) | 1.83 µM (inactive) | 12.8 µM (inactive) | 15.8 µM | 12.4 µM (inactive) | 3.15 µM (inactive) | 14.4 µM (inactive) | 15 µM (inactive) | 0.656 µM (active) | 3.21 µM (inactive) | 1.8 µM (inactive) | 12.1 µM (inactive) | 10.8 µM (inactive) |
| COc1ccc(N2C(=O)CS(=O)(=O)C2c2cccc(Oc3ccccc3)c2)cc1 (centres undefined) | 3.7 µM (inactive) | 2.62 µM (inactive) | 9.91 µM (inactive) | 4.28 µM (inactive) | 3.5 µM (inactive) | 4.92 µM (inactive) | 3.78 µM (inactive) | 1.22 µM (inactive) | 4.08 µM (inactive) | 3.33 µM | 4.04 µM (inactive) | 4.4 µM (inactive) | 6.58 µM (inactive) | 2.74 µM (inactive) | 3.32 µM (inactive) | 1.87 µM (inactive) | 3.27 µM (inactive) | 16.2 µM (inactive) | 7.45 µM (inactive) |
| N#CCCN(CCCN(C(=O)Nc1ccc(NC(=O)N(CCCN(CCC#N)C(N)=O)c2ccccc2)cc1)c1ccccc1)C(N)=O | > 100 µM (inactive) | > 100 µM (inactive) | > 100 µM (inactive) | 67.5 µM (inactive) | > 100 µM (inactive) | > 100 µM (inactive) | > 100 µM (inactive) | > 100 µM (inactive) | > 100 µM (inactive) | > 100 µM | > 100 µM (inactive) | > 100 µM (inactive) | > 100 µM (inactive) | > 100 µM (inactive) | > 100 µM (inactive) | 4.72 µM (inactive) | > 100 µM (inactive) | > 100 µM (inactive) | > 100 µM (inactive) |
| O=C(CNc1ccc([N+](=O)[O-])cc1)Nn1c(-c2ccccc2)nc2ccccc2c1=O | 3.03 µM (inactive) | 1.72 µM (inactive) | 13.4 µM (inactive) | 3.73 µM (inactive) | 1.89 µM (inactive) | 3.95 µM (inactive) | 2.73 µM (inactive) | 3.49 µM (inactive) | 4.24 µM (inactive) | 2.93 µM | 2.82 µM (inactive) | 0.841 µM (active) | 8.77 µM (inactive) | 7.78 µM (inactive) | 2.26 µM (inactive) | 2.52 µM (inactive) | 2.39 µM (inactive) | 3.25 µM (inactive) | 3.11 µM (inactive) |
| Cc1cccc2c1C(=O)[C@@](C)([C@]1(C)Nc3cccc(C)c3C1=O)N2 | > 100 µM (inactive) | > 100 µM (inactive) | > 100 µM (inactive) | 30.4 µM (inactive) | > 100 µM (inactive) | > 100 µM (inactive) | > 100 µM (inactive) | 98.4 µM (inactive) | > 100 µM (inactive) | > 100 µM | > 100 µM (inactive) | > 100 µM (inactive) | > 100 µM (inactive) | > 100 µM (inactive) | 0.499 µM (active) | > 100 µM (inactive) | > 100 µM (inactive) | > 100 µM (inactive) | > 100 µM (inactive) |
| O=C1/C(=C\c2ccco2)Oc2ccccc21 | > 100 µM (inactive) | > 100 µM (inactive) | 42.9 µM (inactive) | > 100 µM (inactive) | 23.7 µM (inactive) | > 100 µM (inactive) | > 100 µM (inactive) | > 100 µM (inactive) | > 100 µM (inactive) | > 100 µM | > 100 µM (inactive) | > 100 µM (inactive) | > 100 µM (inactive) | > 100 µM (inactive) | 39.4 µM (inactive) | 29.4 µM (inactive) | > 100 µM (inactive) | > 100 µM (inactive) | 72.3 µM (inactive) |
| Cc1ccc2c(n1)C(=O)C=CC2=O | 15 µM (inactive) | 1.91 µM (inactive) | 7.03 µM (inactive) | 19.4 µM (inactive) | 2.61 µM (inactive) | 2.89 µM (inactive) | 30.8 µM (inactive) | 7.4 µM (inactive) | 15.1 µM (inactive) | 9.48 µM | 5.93 µM (inactive) | 4.88 µM (inactive) | 16.9 µM (inactive) | 7.35 µM (inactive) | 0.486 µM (active) | 5.33 µM (inactive) | 3 µM (inactive) | 3.56 µM (inactive) | 1.88 µM (inactive) |
| Cc1ccc(S(=O)(=O)/N=C2/N(C)CCCS2(=O)=O)cc1 | > 100 µM (inactive) | > 100 µM (inactive) | > 100 µM (inactive) | > 100 µM (inactive) | > 100 µM (inactive) | > 100 µM (inactive) | > 100 µM (inactive) | > 100 µM (inactive) | > 100 µM (inactive) | > 100 µM | > 100 µM (inactive) | > 100 µM (inactive) | > 100 µM (inactive) | > 100 µM (inactive) | > 100 µM (inactive) | > 100 µM (inactive) | > 100 µM (inactive) | > 100 µM (inactive) | > 100 µM (inactive) |
| CN(C)CCNC(=O)C(C)(C)Oc1ccc(C(=O)c2ccc(Cl)cc2)cc1Cl | 2.45 µM (inactive) | 15 µM (inactive) | 11.2 µM (inactive) | 11.5 µM (inactive) | 12 µM (inactive) | 11 µM (inactive) | 6.14 µM (inactive) | 4.45 µM (inactive) | 11.8 µM (inactive) | 3.3 µM | 7.52 µM (inactive) | 7.11 µM (inactive) | 9.18 µM (inactive) | 2 µM (inactive) | 5.26 µM (inactive) | 8.34 µM (inactive) | 5.26 µM (inactive) | 1.94 µM (inactive) | 10.4 µM (inactive) |
| NNc1ccccc1Cl | > 100 µM (inactive) | > 100 µM (inactive) | > 100 µM (inactive) | > 100 µM (inactive) | 36.2 µM (inactive) | > 100 µM (inactive) | > 100 µM (inactive) | > 100 µM (inactive) | > 100 µM (inactive) | > 100 µM | > 100 µM (inactive) | > 100 µM (inactive) | > 100 µM (inactive) | > 100 µM (inactive) | 2.88 µM (inactive) | > 100 µM (inactive) | > 100 µM (inactive) | > 100 µM (inactive) | 59.8 µM (inactive) |
